The values below come from ChEMBL document CHEMBL1201862, “PubChem BioAssay data set” (2004).

Among the test systems are M19-MEL; NCI-H522; SNB-78; A549; DMS-114; NCI-H460; IGROV-1; HCT-116; HOP-92; SK-MEL-5; OVCAR-4; SK-MEL-2; HCT-15; SR; EKVX; SNB-19; MOLT-4; MCF7; MDA-N; MDA-MB-435.
Holding throughout (assay): NCI anticancer screen, dose series, 48 h

Molecules are shown by their SMILES.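 Grown in 96-well plates, cells were treated for 48 hours with each compound at five concentrations. Insufficient inhibition: endpoint recorded as highest concentration tested. Abbreviation: GI50, concentration required for 50% inhibition of growth.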 Active and inactive are the calls of the source. Rule as the data show it: active = GI50 up to about 1.1 µM and inactive = higher.

With `Cc1cc(O)nc(NNC(C#N)c2ccc(N(C)C)cc2)n1` (centres undefined), the GI50 in the assay with M19-MEL, with NCI-H522, with SNB-78, with A549, in the assay on DMS-114 and with NCI-H460 was > 100 µM (inactive) in each case. Besides, the GI50 in the assay with IGROV-1, in the assay on HCT-116, with HOP-92, with SK-MEL-5, in the assay with OVCAR-4 and in the assay with SK-MEL-2 was > 100 µM (inactive) each time. In addition, the figures for the GI50 with HCT-15 and in the assay with SR were more than 100 µM and 92.9 µM (inactive), respectively.

As for `C[Si](C)(C)/C=C\CCCN1C(=O)CCC1=O`, the GI50 in the assay with M19-MEL is > 100 µM (inactive); in the assay with EKVX, > 100 µM (inactive); in the assay with NCI-H522 it was > 100 µM (inactive); in the assay on SNB-78, > 100 µM (inactive); with A549, > 100 µM (inactive); with DMS-114, 71.1 µM (inactive). The GI50 with SNB-19, with NCI-H460, with IGROV-1, in the assay on HCT-116, in the assay with HOP-92 and in the assay with MOLT-4 was > 100 µM (inactive) in each case. The GI50 in the assay on SK-MEL-5 was 93.8 µM (inactive); in the assay with SK-MEL-2, > 100 µM (inactive); in the assay on HCT-15, more than 100 µM; with SR it was > 100 µM (inactive).

Consider `O=C(O)c1cc2c(s1)C(=O)c1sccc1C2=O`, for which the GI50 was 1.24 µM (inactive) with M19-MEL; 15.7 µM (inactive) with EKVX; 3.54 µM (inactive) in the assay with NCI-H522; 0.264 µM (active) in the assay on SNB-78; 4.25 µM (inactive) with A549; 3.34 µM (inactive) with DMS-114. For the same molecule, the GI50 in the assay on SNB-19 was 5.48 µM (inactive); in the assay with NCI-H460 it was 17.3 µM (inactive); with IGROV-1, 17.1 µM (inactive); in the assay on HCT-116 it was 2.22 µM (inactive); with MCF7 it was 2.8 µM (inactive); in the assay with HOP-92 it was 16.3 µM (inactive). In addition, the GI50 in the assay on MDA-N was 0.769 µM (active); in the assay with MOLT-4, 8.71 µM (inactive); in the assay on MDA-MB-435 it was 0.774 µM (active); in the assay with SK-MEL-5 it was 1.82 µM (inactive); in the assay on OVCAR-4 it was 6.7 µM (inactive); in the assay on SK-MEL-2, 2.23 µM (inactive). Also, the GI50 with HCT-15 was 3.93 µM; in the assay with SR, 2.81 µM (inactive).

As to `CCCCCCCCCCCCCC(=O)O[C@H]1CC[C@H](NC(=O)[C@H](OC)[C@H](O)[C@@H](O)[C@H](O)/C=C/C(C)C)C(=O)N(C)C1` [BENGAMIDE B], the GI50 in the assay on M19-MEL is 0.00611 µM (active); in the assay with EKVX, 1.08 µM (active); in the assay with NCI-H522 it was 0.00577 µM (active); with SNB-78, 0.173 µM (active); in the assay with A549, < 0.0015 µM (active); in the assay on DMS-114, 0.00284 µM (active). For the same molecule, the GI50 in the assay with SNB-19 was 0.008 µM (active); in the assay with NCI-H460, < 0.0015 µM (active); in the assay on IGROV-1, 0.00235 µM (active); in the assay on HCT-116 it was 0.00247 µM (active); with HOP-92, 0.00684 µM (active); in the assay with MOLT-4, 0.00643 µM (active). Moreover, the GI50 with SK-MEL-5 was 0.0199 µM (active); with OVCAR-4, 0.014 µM (active); in the assay on SK-MEL-2 it was 0.0334 µM (active); with HCT-15 it was 0.028 µM; in the assay with SR, 0.0021 µM (active).

For `COc1ccc(CC2NCCc3cc(OC)c(OC)cc32)cc1` (centres undefined), the GI50 is > 100 µM (inactive) in the assay with M19-MEL; > 100 µM (inactive) with EKVX; > 100 µM (inactive) in the assay with NCI-H522; > 100 µM (inactive) in the assay with SNB-78; > 100 µM (inactive) in the assay with A549; 59.6 µM (inactive) with DMS-114. In addition, the GI50 is > 100 µM (inactive) in the assay on SNB-19; > 100 µM (inactive) in the assay with NCI-H460; > 100 µM (inactive) in the assay with IGROV-1; > 100 µM (inactive) in the assay on HCT-116; 57.4 µM (inactive) with HOP-92; > 100 µM (inactive) with MOLT-4. Besides, the GI50 in the assay with SK-MEL-5 is > 100 µM (inactive); in the assay on OVCAR-4 it was > 100 µM (inactive); with SK-MEL-2, > 100 µM (inactive); in the assay with HCT-15, more than 100 µM; in the assay with SR, > 100 µM (inactive).

For `CCOC(=O)/C(C#N)=C\Sc1ccccc1`, the GI50 in the assay with M19-MEL was 22 µM (inactive); in the assay on EKVX, 27.2 µM (inactive); in the assay on NCI-H522, 3.21 µM (inactive); with SNB-78 it was 28.1 µM (inactive); in the assay with A549, 10.4 µM (inactive); in the assay with DMS-114, 13.6 µM (inactive). Further, the GI50 with SNB-19 is 33.5 µM (inactive); in the assay on NCI-H460, 26.4 µM (inactive); in the assay on IGROV-1 it was 10.2 µM (inactive); in the assay on HCT-116 it was 16.8 µM (inactive); in the assay on HOP-92 it was 37.2 µM (inactive); in the assay with MOLT-4, 5.05 µM (inactive). Moreover, the GI50 in the assay on SK-MEL-5 was 22.3 µM (inactive); in the assay with OVCAR-4, 26.7 µM (inactive); with SK-MEL-2, 25 µM (inactive); in the assay on SR, 4.71 µM (inactive).

For the molecule `Cc1ccccc1-n1c(=O)sc2c(=O)n(-c3ccccc3)c(=S)[nH]c21`, the GI50 with M19-MEL was > 100 µM (inactive); in the assay with EKVX, > 100 µM (inactive); in the assay with NCI-H522 it was 42.6 µM (inactive); in the assay with SNB-78, > 100 µM (inactive); with A549, > 100 µM (inactive); with DMS-114, 56.2 µM (inactive). Further, the GI50 in the assay with SNB-19, with NCI-H460, in the assay on IGROV-1, in the assay with HCT-116, in the assay on HOP-92 and in the assay on MOLT-4 was > 100 µM (inactive) throughout. Besides, the GI50 in the assay with SK-MEL-5 is > 100 µM (inactive); in the assay on OVCAR-4, > 100 µM (inactive); in the assay on SK-MEL-2 it was > 100 µM (inactive); in the assay on HCT-15, more than 100 µM; in the assay on SR, > 100 µM (inactive).

Regarding `CCCCN(CCCC)CC(C(=O)Nc1ccc([N+](=O)[O-])cc1[N+](=O)[O-])/C(C)=N\NC(=O)C[N+](C)(C)C` (centres undefined), the GI50 is > 100 µM (inactive) with M19-MEL; 30.3 µM (inactive) in the assay with EKVX; 41.9 µM (inactive) in the assay on NCI-H522; 97.7 µM (inactive) in the assay on SNB-78; > 100 µM (inactive) with A549; 31.6 µM (inactive) with DMS-114. Moreover, the GI50 in the assay with SNB-19 was > 100 µM (inactive); in the assay on NCI-H460, 55.7 µM (inactive); in the assay with IGROV-1 it was > 100 µM (inactive); in the assay on HCT-116, 69.5 µM (inactive); in the assay on HOP-92 it was 33 µM (inactive); in the assay on MOLT-4 it was > 100 µM (inactive). The GI50 in the assay with SK-MEL-5 was > 100 µM (inactive); in the assay on OVCAR-4 it was > 100 µM (inactive); with SK-MEL-2 it was > 100 µM (inactive); with HCT-15, 46.8 µM; in the assay on SR, 25.1 µM (inactive).

For `Cc1cc([N+](=O)[O-])ccc1NC(=O)C(=O)C(C(=O)c1ccccc1-c1ccccc1)C1OC(=O)c2ccccc21` (centres undefined), the GI50 with M19-MEL is 12.9 µM (inactive); in the assay with EKVX, > 10 µM (inactive); in the assay on NCI-H522, 12.9 µM (inactive); in the assay on SNB-78 it was 17.9 µM (inactive); in the assay with A549, 10.8 µM (inactive); in the assay with DMS-114 it was 13.1 µM (inactive). In addition, the GI50 in the assay on SNB-19 was 3.44 µM (inactive); in the assay with NCI-H460 it was 17 µM (inactive); in the assay on IGROV-1, 19.6 µM (inactive); with HCT-116 it was 16 µM (inactive); with HOP-92 it was 16.9 µM (inactive); with MOLT-4, 15.6 µM (inactive). Moreover, the GI50 is 15 µM (inactive) with SK-MEL-5; 26.2 µM (inactive) in the assay on OVCAR-4; 12.6 µM (inactive) in the assay on SK-MEL-2; 15.1 µM in the assay on HCT-15; 16.4 µM (inactive) with SR.

With `O=C1c2ccc(O)c(O)c2C(=O)c2c(O)ccc(O)c21` [QUINALIZARIN], the GI50 is 33.9 µM (inactive) with M19-MEL; 26.9 µM (inactive) in the assay with EKVX; 1.45 µM (inactive) in the assay with NCI-H522; 41.3 µM (inactive) in the assay with SNB-78; 21.1 µM (inactive) with A549; 15.9 µM (inactive) in the assay on DMS-114. Moreover, the GI50 with SNB-19 was 29 µM (inactive); with NCI-H460, 21.2 µM (inactive); with IGROV-1, 38.4 µM (inactive); with HCT-116, 20.6 µM (inactive); in the assay on HOP-92 it was 25.4 µM (inactive); with MOLT-4 it was 23.1 µM (inactive). Besides, the GI50 in the assay with OVCAR-4 is 2.1 µM (inactive); with SK-MEL-2, 25.7 µM (inactive); with HCT-15, 25.7 µM; with SR, 26.5 µM (inactive).

`COc1cc(/C=N/N=C(\N)NO)cc(Cl)c1O`: the GI50 is 27.8 µM (inactive) with M19-MEL; 30.9 µM (inactive) in the assay with EKVX; > 100 µM (inactive) in the assay with NCI-H522; 47.4 µM (inactive) with SNB-78; 41.8 µM (inactive) in the assay on A549; 34.2 µM (inactive) in the assay with DMS-114. Also, the GI50 in the assay on SNB-19 is > 100 µM (inactive); in the assay with NCI-H460, 41.6 µM (inactive); in the assay with IGROV-1, 69.7 µM (inactive); in the assay with HCT-116 it was 55.7 µM (inactive); in the assay on HOP-92, 57.8 µM (inactive); in the assay on MOLT-4, 50.2 µM (inactive). Further, the GI50 in the assay with SK-MEL-5 is 33.4 µM (inactive); in the assay with OVCAR-4, 76.9 µM (inactive); in the assay with SK-MEL-2, 81.1 µM (inactive); in the assay on HCT-15 it was 66.8 µM; with SR, 40.7 µM (inactive).

Consider `COC(=O)C(=O)C(C(=O)C(=O)Nc1ccc(OC)cc1[N+](=O)[O-])c1nc2ccc([N+](=O)[O-])cc2nc1O` (centres undefined), for which the GI50 with M19-MEL, in the assay on EKVX, with NCI-H522, with SNB-78, in the assay on A549 and in the assay on DMS-114 was > 100 µM (inactive) each time. The GI50 in the assay on SNB-19, in the assay with NCI-H460, in the assay with IGROV-1, with HCT-116, with HOP-92 and in the assay with MOLT-4 was > 100 µM (inactive) throughout. Also, the GI50 in the assay on OVCAR-4 was > 100 µM (inactive); with HCT-15, more than 100 µM; with SR, > 100 µM (inactive).
